The target in one assay is T1, CDK2/cyclin A2 (Homo sapiens, UniProt P24941).
T1 construct: purchased Carna Biosciences, Inc. QS S Assist CDK2/Cyclin A2_FP Kit
Briefly: Human CDK2/cyclin A2 inhibitory activity (QS S Assist CDK2/Cyclin A2_FP Kit, IMAP fluorescence polarization). The class given is biochemical. To be noted: Human CDK2/cyclin A2 inhibitory activity; read-out: CDK2 Activity symbol. The procedure, abridged: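 Kinase activity read as fluorescence polarization (485/535 nm) after phosphorylated fluorescent substrate binds IMAP reagent (30 min, RT, dark). Enzyme (2.5 ng/well) reacted 60 min at RT with ATP/substrate/metal in HEPES pH 7.4 buffer with Tween 20 and DTT; no-enzyme wells define 0% activity; IC50 by curve fit.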

The next assay deals with T2, CDK4/cyclin D3 (Homo sapiens, UniProt P11802).
T2 construct: purchased Carna Biosciences, Inc. QS S Assist CDK4/Cyclin D3_FP Kit
Briefly: Human CDK4/cyclin D3 inhibitory activity (QS S Assist CDK4/Cyclin D3_FP Kit, IMAP fluorescence polarization). The class given is biochemical. To be noted: Human CDK4/cyclin D3 inhibitory activity; read-out: CDK4 Activity symbol. The procedure, abridged:
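IMAP fluorescence polarization kit: CDK4/cyclin D3 at 12.5-25 ng/well with kit ATP/substrate/metal mix in 20 mM HEPES pH 7.4, 0.01% Tween20, 2 mM DTT, 45 min at room temperature. FP read at 485/535 nm after 30 min binding; IC50 from dose-response fit of percent inhibition versus enzyme and no-enzyme controls.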

T2 sequence (P11802 whole entry): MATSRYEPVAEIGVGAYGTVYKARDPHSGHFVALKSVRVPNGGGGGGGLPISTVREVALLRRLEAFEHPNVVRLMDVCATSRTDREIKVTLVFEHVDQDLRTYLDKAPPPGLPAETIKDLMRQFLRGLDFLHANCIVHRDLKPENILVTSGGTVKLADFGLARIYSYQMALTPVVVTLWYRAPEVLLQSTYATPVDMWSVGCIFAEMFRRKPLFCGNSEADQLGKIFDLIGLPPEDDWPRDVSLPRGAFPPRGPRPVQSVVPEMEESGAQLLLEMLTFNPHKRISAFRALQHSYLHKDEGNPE
T2 sequence (P30281 whole entry partner): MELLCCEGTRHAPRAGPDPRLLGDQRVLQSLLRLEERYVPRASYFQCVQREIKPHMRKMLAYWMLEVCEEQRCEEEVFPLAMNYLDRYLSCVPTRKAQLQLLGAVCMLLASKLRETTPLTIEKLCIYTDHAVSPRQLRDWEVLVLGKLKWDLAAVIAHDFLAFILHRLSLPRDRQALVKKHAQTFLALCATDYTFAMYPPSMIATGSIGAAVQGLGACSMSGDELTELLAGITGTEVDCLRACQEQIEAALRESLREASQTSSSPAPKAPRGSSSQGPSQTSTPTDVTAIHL

As for `CC(O)c1cc2cnc(Nc3ccc(N4CCNCC4)cn3)nc2c(NC(C)c2ccccc2)n1` (stereo not drawn) [Compound 70], the IC50 was not below 100 nM at CDK2/cyclin A2 and less than 10 nM at CDK4/cyclin D3.
With `CC(C)Nc1nc(C(C)O)cc2cnc(Nc3ccc(N4CCN(C)CC4)cn3)nc12` (stereo not drawn) [Compound 71], the IC50 on CDK2/cyclin A2 was not below 100 nM; on CDK4/cyclin D3, less than 10 nM.
On to `CC(C)Nc1nc(C(C)O)cc2cnc(Nc3ccc(N4CCOCC4)cn3)nc12` (stereo not drawn) [Compound 72], for which the IC50 on CDK2/cyclin A2 is not below 100 nM; at CDK4/cyclin D3, less than 10 nM.
On to `CC(C)Nc1nc(C(F)F)cc2cnc(Nc3ccc(N4CCNCC4)nn3)nc12` [Compound 73], for which the IC50 on CDK2/cyclin A2 was 10 to 100 nM; at CDK4/cyclin D3, less than 10 nM.
For the compound `CC(C)Nc1nc(C(C)O)cc2cnc(Nc3ccc(N4CCN(CCO)CC4)cn3)nc12` (stereo not drawn) [Compound 74], the IC50 at CDK2/cyclin A2 was not below 100 nM; on CDK4/cyclin D3, less than 10 nM.
In the case of `CC(C)Nc1nc(C(C)O)cc2cnc(Nc3ccc(N4CCC(CCCO)CC4)cn3)nc12` (stereo not drawn) [Compound 75], the IC50 at CDK2/cyclin A2 was not below 100 nM; on CDK4/cyclin D3 it was less than 10 nM.
`CC(C)Nc1nc(C(C)O)cc2cnc(Nc3ccc(N4CCC(N)C4)cn3)nc12` (stereo not drawn) [Compound 76]: the IC50 is not below 100 nM at CDK2/cyclin A2 and less than 10 nM at CDK4/cyclin D3.
As to `CC(C)Nc1nc(C(C)O)cc2cnc(Nc3ccc(N4CCC(O)C4)cn3)nc12` (stereo not drawn) [Compound 77], the IC50 is not below 100 nM on CDK2/cyclin A2 and less than 10 nM on CDK4/cyclin D3.
For the compound `CC(C)Nc1nc(C(C)O)cc2cnc(Nc3ccc(C4CCNCC4)cn3)nc12` (stereo not drawn) [Compound 78], the IC50 at CDK2/cyclin A2 was not below 100 nM; at CDK4/cyclin D3 it was less than 10 nM.
For `CC(C)Nc1nc(C(C)O)cc2cnc(Nc3ccc(CN4CCNCC4)cn3)nc12` (stereo not drawn) [Compound 79] the same measures were not below 100 nM and less than 10 nM.
Taken in the same sequence, the figures for `CC(C)Nc1nc(C(F)F)cc2cnc(Nc3ccc(N4CCN(C)CC4=O)cn3)nc12` [Compound 80] were 10 to 100 nM and less than 10 nM.
For `CC(C)Nc1nc(C(F)F)cc2cnc(Nc3ccc(OCCN(C)C)cn3)nc12` [Compound 81] the same measures were 10 to 100 nM and less than 10 nM.
Consider `CC(C)Nc1nc(C(F)F)cc2cnc(Nc3ccccn3)nc12` [Compound 82], for which the IC50 is not below 100 nM on CDK2/cyclin A2 and 10 to 100 nM on CDK4/cyclin D3.
As for `CC(C)Nc1nc(C(F)F)cc2cnc(Nc3ccc(N4CCNC(=O)C4)cn3)nc12` [Compound 83], the IC50 at CDK2/cyclin A2 is 10 to 100 nM; at CDK4/cyclin D3, less than 10 nM.
Taken in the same sequence, the figures for `CC(C)Nc1nc(C(F)F)cc2cnc(Nc3ccc(N4CCN(C)C(=O)C4)cn3)nc12` [Compound 84] were 10 to 100 nM and less than 10 nM.
Taken in the same sequence, the figures for `CC(C)Nc1nc(C(F)F)cc2cnc(Nc3ccc(NC(N)=O)cn3)nc12` [Compound 85] were 10 to 100 nM and 10 to 100 nM.
Regarding `CC(=O)Nc1ccc(Nc2ncc3cc(C(F)F)nc(NC(C)C)c3n2)nc1` [Compound 86], the values for the IC50 on CDK2/cyclin A2 and at CDK4/cyclin D3 were not below 100 nM and 10 to 100 nM, respectively.
Taken in the same sequence, the figures for `CC(C)Nc1nc(C(F)F)cc2cnc(Nc3ccc(N)cn3)nc12` [Compound 87] were less than 10 nM and less than 10 nM.
With `CC(C)Nc1nc(C(F)F)cc2cnc(Nc3ccc(NS(C)(=O)=O)cn3)nc12` [Compound 88], the IC50 on CDK2/cyclin A2 and on CDK4/cyclin D3 was not below 100 nM throughout.
With `CC(C)Nc1nc(C(F)F)cc2cnc(Nc3ccc(N4CCNCC4=O)cn3)nc12` [Compound 89], the IC50 was 10 to 100 nM on CDK2/cyclin A2 and less than 10 nM at CDK4/cyclin D3.
Taken in the same sequence, the figures for `CC(C)Nc1nc(C(F)F)cc2cnc(Nc3ccc(N4CCC(C(=O)O)CC4)cn3)nc12` [Compound 90] were 10 to 100 nM and 10 to 100 nM.
In the case of `CC(=O)c1cc2cnc(Nc3ccc(N4CCNCC4)cn3)nc2c(N(C)C(C)C)n1` [Compound 91], the IC50 at CDK2/cyclin A2 was not below 100 nM; on CDK4/cyclin D3, less than 10 nM.
For `CC(O)c1cc2cnc(Nc3ccc(N4CCNCC4)cn3)nc2c(NC2CCOC2)n1` (stereo not drawn) [Compound 92] the same measures were not below 100 nM and less than 10 nM.
Taken in the same sequence, the figures for `CC(O)c1cc2cnc(Nc3ccc(N4CCNCC4)cn3)nc2c(NC2CCCOC2)n1` (stereo not drawn) [Compound 93] were not below 100 nM and less than 10 nM.

For the origin of these results see patent publication US10124004B2, “Pyrido[3,4-d]pyrimidine derivative and pharmaceutically acceptable salt thereof” (Teijin Pharma Limited, priority 2015, dated 2018).
